The source of these data is patent US6310095A, “Inhibitors of protein isoprenyl transferases” (University of Pittsburgh, priority 1998, dated 2001).

Molecules are shown by their SMILES. Where a name gives a salt, the structure may show the parent alone.

The inhibition is how much of the control response was suppressed.

In one experiment the target is T1, protein farnesyltransferase (Rattus norvegicus, UniProt Q02293+Q04631).
T1 construct: Rat brain protein farnesyltransferase activity is measured; from tissue; host or cells: rat brain; purified according to Reiss et al., Cell 62:81-88 (1990), steps one through three
In words: in vitro inhibition of protein farnesyltransferase (scintillation proximity assay, biotin-K Ras B fragment). The class given is biochemical. The following applies: at 1 × 10^-5 M. The gist of the method: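 Scintillation proximity read-out of farnesylation, using a biotinylated K Ras B fragment (0.1 mM final) in place of biotin-lamin. Enzyme purified from rat brain; results given as % inhibition.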
Background: SPA uses beads or plates that emit light when radiolabelled molecules are held near them.
For the compound `CSCC[C@H](NC(=O)c1ccc(CNCCc2cccs2)cc1-c1ccccc1)C(=O)O` [Example 369], 10 µM produced 87% inhibition. As for `CSCC[C@H](NC(=O)c1ccc(CNc2cccc(N(C)C)c2)cc1-c1ccccc1)C(=O)O` [Example 683], the inhibition at 10 µM came out at 57%. Same read-out and setting: the same measure for `CSCC[C@H](NC(=O)c1ccc(CNCCN2CCOCC2)cc1-c1ccccc1)C(=O)O` [Example 365]: 97%. Same read-out and setting: the same measure for `CSCC[C@H](NC(=O)c1ccc(CNc2ccc3c(c2)Cc2ccccc2-3)cc1-c1ccccc1)C(=O)O` [Example 706]: 53%; for `CSCC[C@H](NC(=O)c1ccc(NC(=O)c2cccc(N(C)C)c2)cc1-c1ccccc1)C(=O)O` [Example 752]: 58%. Same read-out and setting: the same measure for `CSCC[C@H](NC(=O)c1ccc(CNc2ccc3c(c2)CCC3)cc1-c1ccccc1)C(=O)O` [Example 705]: 72%.

`CSCC[C@H](NC(=O)c1ccc(CNc2cccc(Oc3ccccc3)c2)cc1-c1ccccc1)C(=O)O` [Example 686]: testing at 10 µM gave an inhibition of 48%.

`CCN(Cc1ccc(C(=O)N[C@@H](CCSC)C(=O)O)c(-c2ccccc2)c1)Cc1cc([N+](=O)[O-])ccc1O` [Example 711] had an inhibition at 10 µM of 46%.

The experiment is the same for the next values; noted with them: at 1 × 10^-6 M.
With `CSCC[C@H](NC(=O)c1ccc(C=CCc2ccccc2)cc1-c1ccccc1C)C(=O)O` [Example 469], the “% inhibition of farnesyltransferase” value is recorded as 92%. Same read-out and setting: the same measure for `CSCC[C@H](NC(=O)c1ccc(/C=C/CCc2ccccc2)cc1-c1ccccc1C)C(=O)O` [Example 472]: 97%; for `CSCC[C@H](NC(=O)c1ccc(CN(C2CC2)C2(CC3CCCCC3)CC2)cc1-c1ccccc1C)C(=O)O` [Example 324]: 98%.

For `CSCC[C@H](NC(=O)c1ccc(CN2C(=O)OC[C@@H]2CC2CCCCC2)cc1-c1ccccc1C)C(=O)O` [Example 349], the “% inhibition of farnesyltransferase” value was found to be 99%. Same read-out and setting: the same measure for `CSCC[C@H](NC(=O)c1ccc(CN(C(C)C)C2(Cc3ccccc3)CCC2)cc1-c1ccccc1C)C(=O)O` [Example 331]: 98%. Still for that read-out and setting: the same measure for `CSCC[C@H](NC(=O)c1ccc(N2CC(=O)NNC2=O)cc1-c1ccccc1)C(=O)O` [Example 224]: 41%. Same read-out and setting: the same measure for `Cc1ccccc1-c1cc(CN(C2CC2)C2(CC3CCCCC3)CCCC2)ccc1C(=O)N[C@@H](CCS(C)(=O)=O)C(=O)O` [Example 346]: 98%.

Take `CSCC[C@H](NC(=O)c1ccc(OCCCc2ccccc2)cc1-c1ccccc1C)C(=O)[O-].[Li+]` [Example 879]: the “% inhibition of farnesyltransferase” value is given as 95%. Still for that read-out and setting: the same measure for `CSCC[C@H](NC(=O)c1ccc(CSC2CCCCC2)cc1-c1ccccc1C)C(=O)[O-].[Li+]` [Example 550]: 96%; for `CSCC[C@H](NC(=O)c1ccc(OC/C=C(\C)CC/C=C(\C)CCC=C(C)C)cc1-c1ccccc1C)C(=O)O` [Example 547]: 91%. In the case of `CSCC[C@H](NC(=O)c1cc(Cc2ccccc2)c(COCc2ccco2)cc1-c1ccccc1C)C(=O)O` [Example 924], the “% inhibition of farnesyltransferase” value came out at 77%. Take `CSCC[C@H](NC(=O)c1ccc(CN(C(C)C)C(C)(C)CC2CCCCC2)cc1-c1ccccc1C)C(=O)O` [Example 318]: the “% inhibition of farnesyltransferase” value is reported as 98%. Still for that read-out and setting: the same measure for `COc1ccc(CCOCc2ccc(C(=O)N[C@@H](CCSC)C(=O)O)c(-c3ccccc3C)c2)cc1` [Example 937]: 95%.

The same experiment, now with this note: at 1 × 10^-6 M; read-out: % inhibition of farnesyltransferase.
As for `CSCC[C@H](NC(=O)c1ccc(NC(=O)Cc2nccs2)cc1-c1ccccc1)C(=O)O` [Example 163, [4-(thiazol-2-ylmethylcarbonyl)amino-2-phenylbenzoyl]methionine], the inhibition at 1 µM came to 18%. Turning to `CSCC[C@H](NC(=O)c1ccc(CNCCSC(C)(C)C)cc1-c1ccccc1)C(=O)O` [Example 627], the inhibition at 1 µM turned out to be 85%.

`CSCC[C@H](NC(=O)c1ccc(NC(=O)OCCCl)cc1-c1ccccc1)C(=O)O` [Example 979, N-[4-(N-2-chloroethoxycarbonyl)amino-2-phenylbenzoyl]methionine]: the inhibition at 1 µM came to 26%. Take `CSCC[C@H](NC(=O)c1ccc(NCC(CO)CC2CCCCC2)cc1-c1ccccc1C)C(=O)O` (stereo partly shown) [Example 479, N-[4-N-(2-cyclohexylmethyl-3-hydroxypropyl)amino-2-(2-methylphenyl)benzoyl]methionine]: the inhibition at 1 µM is 95%.

For `CSCC[C@H](NC(=O)c1ccc(NC(=O)[C@@H]2CSCN2)cc1-c1ccccc1)C(=O)O` [Example 165, [4-((R)-thiazolidin-4-ylcarbonyl)amino-2-phenylbenzoyl]methionine], the inhibition at 1 µM worked out at 74%. The same measure, in the same setting: the same measure for `CSCC[C@H](NC(=O)c1ccc(CNCc2ccc(N)cc2)cc1-c1ccccc1)C(=O)O` [Example 653]: 62%.

On to `CSCC[C@H](NC(=O)c1ccc(CN(CCC#N)Cc2ccccc2)cc1-c1ccccc1)C(=O)O` [Example 649], for which the inhibition at 1 µM was 86%. On to `COc1cccc(CNCc2ccc(C(=O)N[C@@H](CCSC)C(=O)O)c(-c3ccccc3)c2)c1` [Example 652], for which the inhibition at 1 µM amounted to 41%. Still for that read-out and setting: the same measure for `CSCC[C@H](NC(=O)c1ccc(CN(C)CCc2ccccc2)cc1-c1ccccc1C)C(=O)O` [Example 516, N-[4-N-methyl-N-(2-phenyethyl)aminomethyl-2-(2-methylphenyl)benzoyl]methionine lithium salt]: 95%.

Still in this experiment, the particulars now being: at 1 × 10^-7 M.
`CSCC[C@H](NC(=O)c1ccc(CCc2ccccc2Cc2ccccc2)cc1-c1ccccc1C)C(=O)O` [Example 458]: the “% inhibition of farnesyltransferase” value is on record as 87%. The same measure, in the same setting: the same measure for `CSCC[C@H](NC(=O)c1ccc(COCc2cnc(C(C)(C)C)s2)cc1-c1ccccc1C)C(=O)[O-].[Li+]` [Example 895]: 92%; for `CSCC[C@H](NC(=O)c1ccc(COCc2ccc(-c3ccc(SC)cc3)o2)cc1-c1ccccc1C)C(=O)[O-].[Li+]` [Example 447]: 91%; for `CSCC[C@H](NC(=O)c1ccc(CSc2ccc(F)cc2)cc1-c1ccccc1C)C(=O)O` [Example 740]: 94%. Same read-out and setting: the same measure for `CSCC[C@H](NC(=O)c1ccc(COCCc2cccc3ccccc23)cc1-c1ccccc1C)C(=O)[O-].[Li+]` [Example 592]: 93%; for `COc1ccc(COCc2ccc(C(=O)N[C@@H](CCSC)C(=O)[O-])c(-c3ccccc3C)c2)cc1.[Li+]` [Example 935]: 72%; for `CSCC[C@H](NC(=O)c1ccc(COCCc2ccc(-c3ccc(F)cc3)o2)cc1-c1ccccc1C)C(=O)[O-].[Li+]` [Example 535]: 89%. Still for that read-out and setting: the same measure for `CSCC[C@H](NC(=O)c1ccc(C=Cc2cncs2)cc1-c1ccccc1C)C(=O)[O-].[Li+]` [Example 785]: 96%; for `CSCC[C@H](NC(=O)c1ccc(CCc2cccc(Oc3ccccc3)c2)cc1-c1ccccc1C)C(=O)[O-].[Li+]` [Example 459]: 92%.

Consider `CSCC[C@H](NC(=O)c1ccc(COC(Cc2ccccc2)c2ccco2)cc1-c1ccccc1C)C(=O)[O-].[Li+]` (stereo partly shown) [Example 534], for which the “% inhibition of farnesyltransferase” value is on record as 84%.

Staying with this experiment, now noted: at 1 × 10^-7 M; read-out: % inhibition of farnesyltransferase.
With `CSCC[C@H](NC(=O)c1ccc(CN(Cc2ccccc2)Cc2cncs2)cc1-c1ccccc1C)C(=O)O` [Example 549, N-[4-N-benzyl-N-(thiazol-5-ylmethyl)aminomethyl-2-(2-methylphenyl)benzoyl]methionine], the inhibition at 0.1 µM came out at 98%. For the compound `CCSC[C@H](CC(C)C)N(C)Cc1ccc(C(=O)N[C@@H](CCSC)C(=O)O)c(-c2ccccc2C)c1` [Example 906, N-[4-(N-(1-ethylthio-4-methylpentan-2-yl)-N-methylaminomethyl)-2-(2-methylphenyl)benzoyl]-methionine], the inhibition at 0.1 µM stood at 88%.

The same experiment, now with this note: at 1 × 10^-8 M.
`CSCC[C@H](NC(=O)c1ccc(CO[C@H](CSC(C)(C)C)Cc2ccccc2)cc1-c1ccccc1C)C(=O)O` [Example 994]: the “% inhibition of farnesyltransferase” value came out at 83%. Still for that read-out and setting: the same measure for `CSCC[C@H](NC(=O)c1ccc(CO[C@@H](CC2CCCCC2)CN2CCOCC2)cc1-c1ccccc1C)C(=O)O` [Example 885]: 95%; for `CSCC[C@H](NC(=O)c1ccc(COCc2cnc(-c3ccccc3Cl)o2)cc1-c1ccccc1C)C(=O)[O-].[Li+]` [Example 892]: 59%.

The same experiment, now with this note: at 1 × 10^-8 M; read-out: % inhibition of farnesyltransferase.
On to `CCCCS(=O)(=O)N(Cc1ccc(C(=O)N[C@@H](CCSC)C(=O)O)c(-c2ccccc2C)c1)CC1CCCCC1` [Example 996, N-[4-(N-cyclohexylmethyl-N-butanesulfonylaminomethyl)-2-(2-methylphenyl)benzoyl]methionine], for which the inhibition at 0.01 µM stood at 80%.

Regarding `CSCC[C@H](NC(=O)c1ccc(CN(Cc2ccccc2)c2cnccn2)cc1-c1ccccc1C)C(=O)O` [Example 517, N-[4-N-benzyl-N-pyrazin-2-ylaminomethyl-2-(2-methylphenyl)benzoyl]methionine lithium salt], the inhibition at 0.01 µM came to 92%.

The experiment is the same for the next values; noted with them: read-out: % inhibition of farnesyltransferase.
As to `CSCC[C@H](NC(=O)c1ccc(CN(CCC2CCCCC2)C(C)=O)cc1-c1ccccc1C)C(=O)O` [Example 609, N-[4-(N-acetyl-N-(2-cyclohexylethyl)aminomethyl)-2-(2-methylphenyl)benzoyl]methionine Lithium Salt], the inhibition at 0.1 µM was 95%. On the same count and under the same terms, the same measure for `CSCC[C@H](NC(=O)c1ccc(CN(Cc2ccccc2)c2ccccc2[N+](=O)[O-])cc1-c1ccccc1C)C(=O)O` [Example 849, N-[4-(N-benzyl-N-(2-nitrophenyl)aminomethyl)-2-(2-methylphenyl)benzoyl]methionine lithium salt]: 66%.
